# Reference: US9873693B2 (Sunesis Pharmaceuticals, Inc., priority 2006, dated 2018)
# Like-named read-outs stand apart in the source and are kept apart here.
# How the values were obtained:
# phosphorylated PDK1 = phosphorylated PDK1 (Homo sapiens (Human), UniProt O15530); assay: PDK1 kinase assay (coupled PDK1/AKT/FAM-crosstide, IMAP); assay type: biochemical; conditions: 0.5 nM phosphorylated PDK1, 24 μM ATP; read-out: Inhibition of phospo-PDK1 in vitro IC50
# dephosphorylated PDK1 = dephosphorylated PDK1 (Homo sapiens (Human), UniProt O15530); assay: as above; assay type: biochemical; conditions: 25 nM un-phosphorylated PDK1, 24 μM ATP; read-out: Inhibition of dephospo-PDK1 in vitro IC50
# dephosphorylated PDK1, sequence (O15530 51-360): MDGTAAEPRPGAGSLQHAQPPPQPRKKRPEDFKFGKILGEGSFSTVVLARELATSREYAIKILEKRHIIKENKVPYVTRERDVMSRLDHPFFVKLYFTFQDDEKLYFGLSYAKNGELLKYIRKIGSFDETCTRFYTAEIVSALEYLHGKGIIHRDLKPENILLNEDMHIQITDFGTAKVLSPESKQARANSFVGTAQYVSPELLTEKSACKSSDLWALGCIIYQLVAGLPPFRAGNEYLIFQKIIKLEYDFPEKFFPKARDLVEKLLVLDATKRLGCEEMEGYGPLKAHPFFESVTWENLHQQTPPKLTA
# Outline: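 The FAM-crosstide phosphorylation readout was IMAP polarization (ex 485/em 530 nm, 2 h binding), with 4-parameter fits of ΔmP data. The reaction ran 30 min at 25 °C with 24 μM ATP, and contained 25 nM phosphatase-treated PDK1 (aa 51–360) plus 30 nM unphosphorylated AKT2-PIFtide and 100 nM substrate. Buffer was 10 mM Tris pH 7.2, 10 mM MgCl2, 0.01% Triton X-100 and 1 mM DTT.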
# full-length PDK1 = full-length PDK1 (Homo sapiens (Human), UniProt O15530); assay: PDK phosphorylation of AKT and PKC-PIFtide in presence of PIP3 vesicles; assay type: biochemical; conditions: substrates PKC-PIFtide vs AKT2
# full-length PDK1, sequence (O15530 whole entry): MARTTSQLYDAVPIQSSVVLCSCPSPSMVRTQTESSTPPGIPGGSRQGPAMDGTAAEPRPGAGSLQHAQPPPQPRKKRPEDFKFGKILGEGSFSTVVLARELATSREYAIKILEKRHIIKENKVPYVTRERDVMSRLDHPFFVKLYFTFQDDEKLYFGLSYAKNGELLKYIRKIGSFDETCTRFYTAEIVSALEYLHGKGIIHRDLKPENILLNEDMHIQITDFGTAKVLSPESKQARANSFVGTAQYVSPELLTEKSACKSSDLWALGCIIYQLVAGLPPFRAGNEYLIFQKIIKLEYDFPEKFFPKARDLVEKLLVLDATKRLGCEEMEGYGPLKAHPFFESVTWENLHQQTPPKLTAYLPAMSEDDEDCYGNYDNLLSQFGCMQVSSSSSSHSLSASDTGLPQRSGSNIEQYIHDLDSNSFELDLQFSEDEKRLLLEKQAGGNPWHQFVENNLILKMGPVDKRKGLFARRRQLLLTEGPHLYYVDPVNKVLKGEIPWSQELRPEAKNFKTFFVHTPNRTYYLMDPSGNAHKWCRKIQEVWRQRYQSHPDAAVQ
# Description: PDK phosphorylation of two different substrates, AKT and PKC-PIFtide, was measured in presence of pre-formed phophoinositol lipid PIP3 vesicles. 5 nM full-length PDK1 and was incubated with 100 nM substrate (unphosphorylated, full-length AKT2 or PKC-PIFtide, Invitrogen cat#P2925) in presence of test compound or DMSO at room temperature for 3 hours. Final buffer conditions were 10 mM Tris pH 7.5 buffer containing 10 mM MgCl2, 0.002% Triton X-100, 1 mM DTT, 0.2 mg/ml BSA, 10 uM PtdIns(3,4,5)P3 (Matreya, Inc), 100 uM DOPC:DOPS (Avanti Polar Lipids), and 0.5 uCi γ^33P-ATP (3000 Ci/mmol, Perkin-Elmer.)
# Kinase reactions were stopped with addition of 50 uM non-labelled ATP and 5 mM EDTA, then acidified with 0.5% final concentration phosphoric acid. Labeled proteins were collected in Whatman P81 filter plates and washed with three 150 ul volumes of 0.5% phosphoric acid.
# Lipid vesicles were pre-formed as follows. 15 mg (3 ampules) DOPC:DOPS was resuspended in 898 ul 10 mM HEPES pH 7.4. 1 mg PIP3 was resuspended in 1000 ul 10 mM HEPES pH 7.4. 964 ul of PIP3 was mixed with 800 ul DOPC:DOPS and diluted with 18.2 ml 10 mM HEPES pH 7.4 and mixed by vortexing. The lipid mixture was subjected to 5 cycles of freeze/thaw using liquid nitrogen and a 50° C. water bath. Aliquot of lipids were flash frozen and stored at −20° C.
# phospho-akt (Thr308) = phospho-akt (Thr308) MSD ELISA in PC-3 cells; assay type: cell-based; conditions: Homo sapiens, PC-3 cells; for EC50: PC-3, 2 h, 2 hours, no serum; for inhibition at 1 µM / inhibition at 10 µM: read-out: Percent Inhibition of phospho-Akt (308) By MSD ELISA
# Outline: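 Read-out is MSD electrochemiluminescence after lysate capture overnight at 4 degrees and 1 hr RT detection-antibody step. Before lysis, overnight-plated PC-3 cells received three-fold serial dilutions of inhibitor in serum-free medium, with DMSO-only high controls.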
# Phospho-T308 Akt = Phospho-T308 Akt detection using immunoblot (western blot) in PC-3 cells; assay type: cell-based; conditions: for Reduction of Cellular Levels of Akt p308 By Western: 2 hour incubation, concentration not given in Table 2
# Description: A Phospho-T308 Akt detection using immunoblot (western blot) analysis was performed as described below.
# PC-3 prostate cells were plated in a 6 well plate in F12K media (Invitrogen, Carlsbad, Calif.) plus 10% FBS (Invitrogen) and placed in incubator overnight. The stock of compound A was a 50 mM solution in DMSO. 1000× dilutions of the compound were made in DMSO. The 1000× dilutions include, 35 mM, 25 mM, 15 mM, 10 mM, 7 mM, 5 mM, and 1 mM. 1 μl of the 1000× dilutions was added to 1 ml F12K media without serum for final concentrations of […]. 1 μl of DMSO was added to 1 ml media with no serum for a control. The 1 ml DMSO or compound plus media was then added to the cells. Following a 2 hour incubation at 37° C., cells were harvested and washed in PBS and subjected to centrifugation at 3,300 rpm for 5 minutes. Cells were lysed in 100 μl of Bio Rad Bioplex buffer containing protease inhibitors (BioRad, Hercules, Calif.) for 30 minutes on ice followed by centrifugation at 13,000 rpm for 5 minutes. The protein content of the supernatant was assayed using DC Protein Assay (BioRad). 25 μl of protein was added to 4× sample buffer (Invitrogen) and sample reducer (Invitrogen) and run on a 4-12% NuPage gel (Invitrogen). Proteins were then transferred to nitrocellulose (Invitrogen). The membrane was blocked in Tris-buffered saline (Sigma, St. Louis, Mo.) plus 0.1% Tween (Sigma) (T-TBS) plus 5% blotting grade milk (BioRad) for 60 minutes. Membranes were then incubated in T-TBS plus 5% BSA (Sigma) plus 1:1000 of anti-phospho akt (Thr 308) (Cell Signaling Technology, Beverly, Mass.) overnight at 4° C. Membranes were washed in T-TBS then incubated in 1:2000 of anti-rabbit-HRP (Cell Signaling) in TTBS plus 5% milk. Membranes were washed again and proteins were visualized with Super Signal West Pico (Pierce, Rockford, Ill.) and using Kodak BioMax MR film (Kodak, Rochester, N.Y.).
# Phospho-akt 308 protein bands on the film were quantified using densitometry. An Alpha Imager (Alpha Innotech Corp, San Leandro, Calif.) using AlphaEase FC software version 4.1.0 (Alpha Innotech Corp.) was used to quantitate protein bands. Briefly, a rectangle of equal size was placed around each protein band as well as a background spot on the film. The densitometry values (IDV=Integrated Density Value) obtained for the background spot was then subtracted from the values obtained for the protein bands. These values were used to obtain an EC50 value using non-linear regression analysis in GraphPad Prism Version 4.00 (Graph Pad Prism, San Diego, Calif.). Percent decrease in expression of phosphoh-akt 308 were also measured specifically at 2 μM and 5 μM levels of inhibitor.
# [1] = read-out: Reduction of Cellular Levels of Akt p308 By MSD ELISA (EC50 μM)
# [2] = Homo sapiens, read-out: Percent Inhibition of phospho-Akt (308) By Western
# [3] = read-out: Inhibition of P308 Akt in cells using MSD EC50
# phosphorylated PDK1, sequence (O15530 51-360): as the sequence (O15530 51-360) above
SMILES,IC50 (phosphorylated PDK1) [nM],IC50 (dephosphorylated PDK1) [nM],Ratio of PIP3 IC50 with PKCtide to PIP3 IC50 with AKT (full-length PDK1),EC50 (phospho-akt (Thr308); [1]) [µM],Reduction of Cellular Levels of Akt p308 By Western (Phospho-T308 Akt),inhibition at 5 µM (Phospho-T308 Akt; [2]) [%],inhibition at 1 µM (phospho-akt (Thr308)) [%],inhibition at 10 µM (phospho-akt (Thr308)) [%],EC50 (phospho-akt (Thr308); [3]) [µM],"inhibition at 2 µM (Phospho-T308 Akt; Homo sapiens, at 2 μM, read-out: Percent Inhibition of phospho-Akt (308) By Western) [%]"
O=C(NCCCCc1c[nH]c2ncccc12)c1cccn(Cc2ccc(F)c(F)c2)c1=O [Cpd 110],< 500,< 500,13.5,,,,,,,
O=C(NCc1cccc(-c2cn[nH]c2)c1)c1cccn(Cc2ccc(F)c(F)c2)c1=O [Cpd 222],500 to 10000,< 500,,> 5,bb (inhibition of from 25% to 75%),25 to 75,,,,
O=C(NCc1noc(-c2c[nH]c3ncccc23)n1)c1cccn(Cc2ccc(F)cc2)c1=O [Cpd 303],< 500,< 500,,,bbb (inhibition of more than 75%),> 75,< 25,< 25,,
CC(C)(C)OC(=O)C[C@@H](NC(=O)c1cccn(Cc2ccc(F)c(F)c2)c1=O)c1nnc(-c2c[nH]c3ncccc23)o1 [Cpd 286],< 500,< 500,,,bbb (inhibition of more than 75%),> 75,25 to 75,> 75,< 1,
O=C(C[C@@H](NC(=O)c1cccn(Cc2ccc(F)c(F)c2)c1=O)c1nnc(-c2c[nH]c3ncccc23)o1)NCCN1CCCC1 [Cpd 298],< 500,< 500,,,b (inhibition of less 25%),< 25,< 25,< 25,,
C[C@@H](c1ccc(Cl)cc1)n1cccc(C(=O)NCc2noc(-c3c[nH]c4ncccc34)n2)c1=O [Cpd 300],< 500,< 500,,,bbb (inhibition of more than 75%),> 75,25 to 75,> 75,1 to 5,
NC[C@@H](NC(=O)c1cccn(Cc2ccc(F)c(F)c2)c1=O)c1nc(-c2c[nH]c3ncccc23)cs1 [Cpd 296],< 500,< 500,,,bb (inhibition of from 25% to 75%),25 to 75,< 25,> 75,1 to 5,
O=C(Nc1c(F)cccc1Oc1ccc2[nH]c(=O)[nH]c2c1)c1cccn(Cc2ccc(F)c(F)c2)c1=O [Cpd 133],< 500,< 500,,,bbb (inhibition of more than 75%),> 75,< 25,25 to 75,,
COC(=O)[C@@H](COc1ccc2[nH]c(=O)[nH]c2c1)NC(=O)c1cccn(Cc2ccc(F)c(F)c2)c1=O [Cpd 293],< 500,< 500,,,bb (inhibition of from 25% to 75%),25 to 75,25 to 75,> 75,,
O=C(NCc1cnc(-c2c[nH]c3ncccc23)s1)c1cccn(Cc2ccc(F)c(F)c2)c1=O [Cpd 134],< 500,< 500,,,bbb (inhibition of more than 75%),> 75,< 25,> 75,,
O=C(O)C[C@@H](NC(=O)c1cccn(Cc2ccc(F)c(F)c2)c1=O)c1nnc(-c2c[nH]c3ncccc23)o1 [Cpd 287],< 500,< 500,,,bb (inhibition of from 25% to 75%),25 to 75,< 25,< 25,,
COC(=O)[C@H](COc1ccc2[nH]c(=O)[nH]c2c1)NC(=O)c1cccn(Cc2ccc(F)c(F)c2)c1=O [Cpd 135],< 500,< 500,,1 to 5,bbb (inhibition of more than 75%),> 75,,,1 to 5,
COC(=O)c1cc(-c2cccc(CNC(=O)c3cccn(Cc4ccc(F)c(F)c4)c3=O)c2)c[nH]1 [Cpd 230],< 500,< 500,,,b (inhibition of less 25%),< 25,25 to 75,> 75,,
CNC(=O)C[C@@H](NC(=O)c1cccn(Cc2ccc(F)c(F)c2)c1=O)c1ncc(-c2c[nH]c3ncccc23)s1 [Cpd 137],< 500,< 500,,,bbb (inhibition of more than 75%),> 75,< 25,> 75,> 5,
CN(C)C(=O)C[C@@H](NC(=O)c1cccn(Cc2ccc(F)c(F)c2)c1=O)c1nnc(-c2c[nH]c3ncccc23)o1 [Cpd 290],500 to 10000,< 500,,,bb (inhibition of from 25% to 75%),25 to 75,< 25,25 to 75,,
O=C(NC1CCCc2ccc(-c3c[nH]c4ncccc34)cc21)c1cccn(Cc2ccc(F)c(F)c2)c1=O (stereo not drawn) [Cpd 16],< 500,< 500,,> 5,bb (inhibition of from 25% to 75%),,,,> 5,< 25
NC(=O)C[C@@H](NC(=O)c1cccn(Cc2ccc(F)c(F)c2)c1=O)c1ncc(-c2c[nH]c3ncccc23)o1 [Cpd 306],< 500,< 500,,,bbb (inhibition of more than 75%),> 75,< 25,25 to 75,,
